Molecular target: T1, NOX2 in differentiated HL60 cells (Homo sapiens, UniProt P04839)
T1 construct: Differentiation of HL-60 cells to granulocytes increases NOX2 expression; endogenous in cells; host or cells: HL60 cells differentiated to neutrophil-like cells with 1.3% DMSO and stimulated with PMA
T1 sequence (P04839 1-570): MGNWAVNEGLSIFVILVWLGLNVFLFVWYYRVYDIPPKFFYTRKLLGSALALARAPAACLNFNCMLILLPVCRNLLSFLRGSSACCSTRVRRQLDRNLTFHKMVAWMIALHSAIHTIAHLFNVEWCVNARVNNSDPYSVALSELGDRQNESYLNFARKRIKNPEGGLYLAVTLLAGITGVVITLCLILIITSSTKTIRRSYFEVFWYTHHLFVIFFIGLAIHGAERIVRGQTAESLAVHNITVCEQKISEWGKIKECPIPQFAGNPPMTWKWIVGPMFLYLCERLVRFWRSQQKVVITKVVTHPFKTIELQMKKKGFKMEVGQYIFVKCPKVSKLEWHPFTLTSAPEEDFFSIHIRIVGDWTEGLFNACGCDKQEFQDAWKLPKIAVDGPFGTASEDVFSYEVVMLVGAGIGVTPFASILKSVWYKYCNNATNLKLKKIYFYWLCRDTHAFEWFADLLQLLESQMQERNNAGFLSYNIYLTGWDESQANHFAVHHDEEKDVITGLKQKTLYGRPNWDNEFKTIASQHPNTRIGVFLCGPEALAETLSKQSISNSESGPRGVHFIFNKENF
T1 sequence (P13498 1-195 partner): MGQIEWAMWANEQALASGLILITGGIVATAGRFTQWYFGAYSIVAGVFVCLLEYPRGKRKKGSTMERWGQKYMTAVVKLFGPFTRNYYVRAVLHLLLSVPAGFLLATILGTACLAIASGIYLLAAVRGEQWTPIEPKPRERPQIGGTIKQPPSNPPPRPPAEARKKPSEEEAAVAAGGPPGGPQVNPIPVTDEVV
Test: HL60 cell-based assays (Assay 1 Oxyburst green BSA fluorescence, Assay 2 L-012 luminescence); result stated for at least one of them
Details: PMA-stimulated superoxide production in differentiated HL60 cells; at least one of Oxyburst and L012 assays; read-out: pIC50 in at least one of the HL60 assays (converted)
Experimental: In the cell-based assay, superoxide production by NOX2 was measured in differentiated HL60 cells, a human myelomonocytic leukemia cell line, using either Oxyburst (Assay1) or L012 (Assay2). Differentiation of HL-60 cells to granulocytes increases NOX2 expression. The phorbol 12-myristate 13-acetate (PMA) was used to stimulate the production of superoxide in HL60 cells by activating protein kinase C, which then activated the NADPH oxidase (NOX) enzymes. Inhibition of NOX2 enzyme was detected by the reversal of fluorescence signal (Assay1) or luminescence signal (Assay2). The control inhibitor used was diphenyleneiodonium chloride (DPI), a […] inhibitor capable of non-selectively inhibiting superoxide produced by NOX enzymes.
Assay 1: in this high-throughput screening assay, oxyburst green bovine serum albumin (BSA) was used to detect superoxide production in HL60 cells. Oxidation of Oxyburst green BSA by hydrogen peroxide as a result of the activation of NOX2 by PMA. Oxyburst green BSA fluorescence was measured at excitation 485 nm and emission 530 nm.
Assay 2: in this assay, a chemiluminescence probe, L-012 was used to detect superoxide production in HL60 cells. L-012 reacted with various types of reactive oxygen species generated by PMA-activated HL60 cells. Luminescence was measured using Tecan Infinite 500.
The HL60 cells were differentiated into neutrophil-like cells by adding 1.3% DMSO in the media for 3-7 days (Hua, J et al. (2000) Journal of Leukocyte Biology. 68:216-224). Iscove's Modified Dulbecco's Media (IMDM) with L-Glutamine and 25 mM HEPES buffer, Fetal Bovine Serum (FBS), Penicillin/Streptomycin, Oxyburst Green BSA, PBS, and HBSS buffer with Calcium Chloride and Magnesium Chloride were purchased from Invitrogen (Catalog #s: 12440-061, 10500-064, 15140-163, O-13291, 14190-250, and 14025-134 respectively). Phorbol 12-myristate 13-acetate (PMA), glucose, and CHAPS were purchased from Sigma (Catalog #s: 79346, D-9434, and C5070 respectively). Diphenyleneiodonium chloride (DPI) was purchased from Toronto Research Chemicals (Catalog #: D491500). L-012 was purchased from Wako Chemical (Catalog #: 120-04891). Dimethyl sulfoxide (DMSO) was purchased EMD Chemicals (VWR Catalog #: MX1456-1). Multidrop combi was purchased from Thermo Electron Corporation (Waltham, Mass., USA). Hummingbird nanoliter liquid dispenser was purchased from Genomics Solution (Ann Arbor, Mich., USA). 384 well low-volume plates and polypropylene 384 well clear plates were purchased from Greiner (Catalog #: 784076 and 781280 respectively). 96 well plate and 384 well plate black assay plates were purchased from Greiner (Catalog #: 655094 and 781098). 96 well plate for compound serial dilution was purchased from Corning (Catalog #: 9017). Acquest or Analyst fluorescence plate reader was purchased from LJL Biosystems/Molecular Devices (California, USA). Tecan Infinite 500 was purchased from Tecan (Switzerland).
Media for HL60 cells were kept at 4° C. for storage and were warmed to 37° C. in a water bath before use. The media components were IMDM media with 20% FBS and 1% Penicillin/Streptomycin.
Buffer to be used for compound addition and compound dilution consisted of HBSS buffer with 0.1% glucose.
Buffer to be used for cells consisted of HBSS buffer with 0.1% glucose and 0.01% CHAPS.
HL60 cells were thawed and resuspended in Cells media. The cells were centrifuged at 1200 rpm for 8 minutes. Media was aspirated and the cells were resuspended in Cells buffer. The cells were counted and resuspended to 1×10^6 cells/mL.
Full inhibition controls were dispensed using 100 nL/well of 1 mM DPI in DMSO to column 18 of a 384 well plate. Compounds were dispensed using 100 nL/well. Full activity controls were dispensed using 100 nL/well of 4 uM PMA in DMSO. Oxyburst Green BSA was added to cell solution at 10 ug/mL. Using the Multidrop, 10 uL cell solution was added to the entire assay plate. The assay plate was incubated at room temperature for 100 minutes. […]

IC50 [µM] | Compound
< 100 | COc1cccc(-c2csc3nccc(NS(=O)(=O)c4cccc(Cl)c4)c23)c1 [Example 62, 3-Chloro-N-{3-[3-(methyloxy)phenyl]thieno[2,3-b]pyridin-4-yl}benzenesulfonamide]
< 100 | COC(=O)c1sc2nc(C)cc(NS(=O)(=O)c3cccc(Cl)c3)c2c1-c1cccc(OC)c1 [Example 36, Methyl 4-{[(3-chlorophenyl)sulfonyl]amino}-6-methyl-3-[3-(methyloxy)phenyl]thieno[2,3-b]pyridine-2-carboxylate]
